Test results reported in ChEMBL document CHEMBL5727053, “Muscarinic M1 receptor positive allosteric modulators” (2019).

Molecular target: T1, Muscarinic acetylcholine receptor M1 (Homo sapiens, UniProt P11229)
T1 sequence (P11229 whole entry): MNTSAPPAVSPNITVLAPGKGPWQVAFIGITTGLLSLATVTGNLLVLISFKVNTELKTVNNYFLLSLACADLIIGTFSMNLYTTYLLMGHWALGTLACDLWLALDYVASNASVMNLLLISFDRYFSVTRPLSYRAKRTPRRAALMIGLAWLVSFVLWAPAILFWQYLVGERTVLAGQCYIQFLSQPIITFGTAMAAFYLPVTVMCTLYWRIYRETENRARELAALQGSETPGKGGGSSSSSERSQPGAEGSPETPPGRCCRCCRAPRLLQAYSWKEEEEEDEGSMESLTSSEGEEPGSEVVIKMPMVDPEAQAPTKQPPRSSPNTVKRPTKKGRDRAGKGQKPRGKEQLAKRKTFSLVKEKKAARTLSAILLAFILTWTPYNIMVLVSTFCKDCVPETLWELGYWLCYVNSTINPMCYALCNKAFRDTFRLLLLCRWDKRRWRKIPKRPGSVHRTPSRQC
Assay: Determination of Allosteric Potency EC50 Values for Muscarinic M1 Receptor: A stable CHO cell line expressing recombinant human Muscarinic M1 receptor and pCRE-Luc reporter system was used for cell-based assay. The assay offers a non-radioactive based approach to determine binding of a compound to GPCRs. In this specific assay, the level of intracellular cyclic AMP which is modulated by activation or inhibition of the receptor is measured. The recombinant cells harbor luciferase reporter gene under the control of cAMP response element.The above cells were grown in 96 well clear bottom white plates in Hams F12 medium containing 10% fetal bovine serum (FBS). Prior to the addition of compounds or standard agonist, cells were serum starved overnight. Increasing concentrations of test compounds were added along with EC20 of acetylcholine in OptiMEM medium to the cells. The incubation was continued at 37° C. in CO2 incubator for 4 hours. Medium was removed and cells were washed with phosphate buffered saline. The cells were lysed and luciferase activity was measured in a Luminometer. Luminescence units were plotted against the compound concentrations using Graphpad software. EC50 values of the compounds were defined as the concentration required in stimulating the luciferase activity by 50% in presence of EC20 of acetylcholine.

- EC50: 1000 nM
Compound: O=C(N[C@H]1CCCC[C@@H]1O)C1=CN(Cc2ccccc2)c2cccnc2O1
